Reference: patent US12459974B2, “Bicyclic peptide ligands specific for Nectin-4” (priority 2018, dated 2025)
*1 amine or outer side, *2 acyl side, *3 side chain or, on linkers, in order; H or OH if unused. Where a SMILES comes first, the peptide text is derived from it. Bridges are numbered along the chain shown (N, C = ends). Roman numbers before positions name the chains, in order. [ ]: non-standard residue; d: D form. The star is where a group is joined. ξ: configuration not given here. TATA = O=C(CC[*:1])N1CN(C(=O)CC[*:2])CN(C(=O)CC[*:3])C1; Dolaproine = CO[C@@H]([C@@H]1CCCN1)[C@@H](C)C(=O)O; X1 = CC[C@H](C)C(C(CC(=O)[*:2])OC)N(C)[*:1]; 1Nal = N[C@@H](Cc1cccc2ccccc12)C(=O)O; X3 = O=C(CCCC(=O)[*:2])NCCC(=O)[*:1]; PABC = O=C(OCc1ccc(N[*:1])cc1)[*:2]; Hyp = O=C(O)[C@@H]1C[C@@H](O)CN1; hArg = N=C(N)NCCCC[C@H](N)C(=O)O; Cit = NC(=O)NCCC[C@H](N)C(=O)O; X2 = CC(N*)[C@@H](O)c1ccccc1; ξNMeV = CNC(C(=O)O)C(C)C; ξV = CC(C)C(N)C(=O)O; Sar = CNCC(=O)O

Tests used:
LU-01-0007 PDX = assay: Example 12: in vivo efficacy in LU-01-0007 PDX model of lung cancer; parameters: species or system Mus Musculus
Method: Animals were checked daily for any effects of tumor growth and treatments on normal behavior such as mobility, food and water consumption (by looking only), body weight gain/loss, eye/hair matting and any other abnormal effect as stated in the protocol. Death and observed clinical signs were recorded on the basis of the numbers of animals within each subset.

A549 xenograft = assay: Example 9.1: in vivo efficacy in A549 xenograft in Balb/c nude mice; parameters: species or system Mus Musculus; details: for Tumor volume trace over time: iv; for T/C: treated group average tumor volume / control group; for Tumor volume: Mean ± SEM
MDA-MB-468 xenograft = assay: Example 9.4: in vivo efficacy in MDA-MB-468 xenograft in Balb/c nude mice; details: for TGI / Tumor volume (TV) / T/C: day 21; for T/C: treated/control group average tumor volume; for Tumor volume trace over time (Day 23 to day 42): dosing suspended from day 21
Method: The major endpoint was to see if the tumor growth could be delayed or mice could be cured. Tumor volume was measured three times weekly in two dimensions using a caliper, and the volume was expressed in mm^3 using the formula: V=0.5 a×b^2 where a and b are the long and short diameters of the tumor, respectively. The tumor size was then used for calculations of T/C value. The T/C value (in percent) is an indication of antitumor effectiveness; T and C are the mean volumes of the treated and control groups, respectively, on a given day. TGI was calculated for each group using the formula: TGI (%)=[1−(Ti−T0)/(Vi−V0)]×100; Ti is the average tumor volume of a treatment group on a given day, T0 is the average tumor volume of the treatment group on the day of treatment start, Vi is the average tumor volume of the vehicle control group on the same day with Ti, and V0 is the average tumor volume of the vehicle group on the day of treatment start.
A one-way ANOVA was performed to compare tumor volume among groups, and when a significant F-statistics (a ratio of treatment variance to the error variance) was obtained, comparisons between groups were carried out with Games-Howell test. All data were analyzed using GraphPad Prism 5.0. P<0.05 was considered to be statistically significant.
• Species: Mus Musculus • Strain: Balb/c nude • Age: 6-8 weeks • Sex: female • Body weight: 18-22 g • Number of animals: 41 mice plus spare 3.1.2.
The tumor cells were maintained in Leibovitz's L-15 medium supplemented with 10% heat inactivated fetal bovine serum at 37° C. in an atmosphere of 5% CO2 in air. The tumor cells were routinely subcultured twice weekly. The cells growing in an exponential growth phase were harvested and counted for tumor inoculation.
41 animals were randomized when the average tumor volume reached 196 mm^3.

[1] = 3 mpk, biw, day 14 after the start of treatment
[2] = 3 mpk, qw, day 14 after the start of treatment
[3] = 5 mpk, qw, day 14 after the start of treatment

## CC[C@H](C)C(C(CC(=O)N1CCC[C@H]1[C@H](OC)[C@@H](C)C(=O)NC(C)[C@@H](O)c1ccccc1)OC)N(C)C(=O)[C@@H](NC(=O)C(C(C)C)N(C)C(=O)OCc1ccc(NC(=O)[C@H](CCCNC(N)=O)NC(=O)C(NC(=O)CCCC(=O)NCCC(=O)N(C)CC(=O)N(C)CC(=O)N(C)CC(=O)N(C)CC(=O)N(C)CC(=O)N(C)CC(=O)N(C)CC(=O)N(C)CC(=O)N(C)CC(=O)N(C)CC(=O)N[C@H]2CSCCC(=O)N3CN4CN(C3)C(=O)CCSC[C@H](NC(=O)[C@@H](CC(=O)O)NC(=O)[C@H](Cc3cccc5ccccc35)NC(=O)[C@@H]3CCCN3C2=O)C(=O)N[C@@H](CCSC)C(=O)N[C@@H](CCCCNC(=N)N)C(=O)N[C@@H](CC(=O)O)C(=O)N[C@@H](Cc2c[nH]c3ccccc23)C(=O)N[C@@H](CO)C(=O)N[C@@H]([C@@H](C)O)C(=O)N2CCC[C@H]2C(=O)N2C[C@H](O)C[C@H]2C(=O)N[C@@H](Cc2c[nH]c3ccccc23)C(=O)N[C@H](C(N)=O)CSCCC4=O)C(C)C)cc1)C(C)C (stereo partly drawn) [BCY8245, MMAE-PABC-Cit-Val-Glutaryl-BCY8234] (I: [Sar][Sar][Sar][Sar][Sar][Sar][Sar][Sar][Sar][Sar]CP[1Nal][dD]CM[hArg]DWSTP[Hyp]WC-NH2 / II: [ξV][Cit][PABC][ξNMeV]V[X1][Dolaproine]-X2; linker I:11-I:15-I:25 via TATA; linker I:N-II:N via X3)
LU-01-0007 PDX; 1 mg/kg qw
  efficacy (in words): stable disease
LU-01-0007 PDX; 3 mg/kg, after dosing ceased, out to 126 days post study start
  tumor regrowth (in words): no tumor regrowth
LU-01-0007 PDX; 3 mg/kg, dosing maintained out to day 56
  efficacy (in words): full regression
A549 xenograft; 3 mg/kg biw, day 14
  TGI: 90.8%
  Tumor volume (TV): 194 mm^3
A549 xenograft; 3 mg/kg qw, day 14
  TGI: 51.4%
  Tumor volume (TV): 356 mm^3
A549 xenograft; 5 mg/kg qw, day 14
  TGI: 82.6%
  Tumor volume (TV): 228 mm^3
A549 xenograft; 3 mpk, biw, day 0 after the start of treatment
  Tumor volume trace over time: 157 ± 14
A549 xenograft; 3 mpk, biw, day 2 after the start of treatment
  Tumor volume trace over time: 183 ± 27
A549 xenograft; 3 mpk, biw, day 5 after the start of treatment
  Tumor volume trace over time: 158 ± 16
A549 xenograft; 3 mpk, biw, day 7 after the start of treatment
  Tumor volume trace over time: 184 ± 6
A549 xenograft; 3 mpk, biw, day 9 after the start of treatment
  Tumor volume trace over time: 182 ± 8
A549 xenograft; 3 mpk, biw, day 12 after the start of treatment
  Tumor volume trace over time: 190 ± 15
A549 xenograft; [1]
  Tumor volume trace over time: 194 ± 27
  TGI: 90.8%
  Tumor volume: 194 ± 27 mm^3
A549 xenograft; 3 mpk, biw, day 14
  T/C: 34.2%
A549 xenograft; 3 mpk, qw, day 0 after the start of treatment, mean ± SEM
  Tumor volume trace over time: 157 ± 10
A549 xenograft; 3 mpk, qw, day 2 after the start of treatment
  Tumor volume trace over time: 208 ± 15
A549 xenograft; 3 mpk, qw, day 5 after the start of treatment
  Tumor volume trace over time: 197 ± 25
A549 xenograft; 3 mpk, qw, day 7 after the start of treatment
  Tumor volume trace over time: 257 ± 40
A549 xenograft; 3 mpk, qw, day 9 after the start of treatment
  Tumor volume trace over time: 293 ± 41
A549 xenograft; 3 mpk, qw, day 12 after the start of treatment
  Tumor volume trace over time: 341 ± 54
A549 xenograft; [2]
  Tumor volume trace over time: 356 ± 53
  TGI: 51.4%
  Tumor volume: 356 ± 53 mm^3
A549 xenograft; 3 mpk, qw, day 14
  T/C: 62.8%
A549 xenograft; 5 mpk, qw, day 0 after the start of treatment
  Tumor volume trace over time: 157 ± 14
A549 xenograft; 5 mpk, qw, day 2 after the start of treatment
  Tumor volume trace over time: 179 ± 22
A549 xenograft; 5 mpk, qw, day 5 after the start of treatment
  Tumor volume trace over time: 147 ± 10
A549 xenograft; 5 mpk, qw, day 7 after the start of treatment
  Tumor volume trace over time: 172 ± 23
A549 xenograft; 5 mpk, qw, day 9 after the start of treatment
  Tumor volume trace over time: 173 ± 24
A549 xenograft; 5 mpk, qw, day 12 after the start of treatment
  Tumor volume trace over time: 204 ± 36
A549 xenograft; [3]
  Tumor volume trace over time: 228 ± 33
  TGI: 82.6%
  Tumor volume: 228 ± 33 mm^3
A549 xenograft; 5 mpk, qw, day 14
  T/C: 40.2%
A549 xenograft; all dose groups
  bodyweight (in words): maintained the bodyweight well
A549 xenograft; mouse, in vivo
  tumor response (in words): tumor growth is restrained by BCY8245 but the tumor does not undergo regression
MDA-MB-468 xenograft; 3 mg/kg biw
  TGI: 169.8%
  Tumor volume (TV): 22 mm^3
MDA-MB-468 xenograft; 3 mg/kg qw
  TGI: 144.2%
  Tumor volume (TV): 85 mm^3
MDA-MB-468 xenograft; 5 mg/kg qw
  TGI: 168.4%
  Tumor volume (TV): 29 mm^3
MDA-MB-468 xenograft; 3 mpk, biw, iv
  TGI: 169.8%
  T/C: 4.9%
MDA-MB-468 xenograft; 3 mpk, qw, iv
  TGI: 144.2%
  T/C: 18.9%
MDA-MB-468 xenograft; 5 mpk, qw, iv, day 23 after the start of treatment
  Tumor volume trace over time (Day 23 to day 42): 35 ± 5 mm^3
MDA-MB-468 xenograft; 5 mpk, qw, iv, day 25 after the start of treatment
  Tumor volume trace over time (Day 23 to day 42): 48 ± 5 mm^3
MDA-MB-468 xenograft; 5 mpk, qw, iv, day 28 after the start of treatment
  Tumor volume trace over time (Day 23 to day 42): 37 ± 7 mm^3
MDA-MB-468 xenograft; 5 mpk, qw, iv, day 32 after the start of treatment
  Tumor volume trace over time (Day 23 to day 42): 28 ± 6 mm^3
MDA-MB-468 xenograft; 5 mpk, qw, iv, day 35 after the start of treatment
  Tumor volume trace over time (Day 23 to day 42): 24 ± 4 mm^3
MDA-MB-468 xenograft; 5 mpk, qw, iv, day 39 after the start of treatment
  Tumor volume trace over time (Day 23 to day 42): 28 ± 6 mm^3
MDA-MB-468 xenograft; 5 mpk, qw, iv, day 42 after the start of treatment
  Tumor volume trace over time (Day 23 to day 42): 26 ± 6 mm^3
MDA-MB-468 xenograft; 5 mpk, qw, iv
  TGI: 168.4%
  T/C: 6.6%
MDA-MB-468 xenograft; mouse, in vivo
  tumor response (in words): causes regression of the tumor
